Source: patent publication US20170122958A1, “Enzymes Functional Probes” (University of Dundee, priority 2013, published 2017)

How the values were obtained:
Format in all cases: binding
Brd2(1) Leu110-Ile = Brd2(1) Leu110-Ile (Homo sapiens, UniProt P25440, L110I); assay: DSF thermal shift; set-up: Plasmids of the eight single BET bromodomain constructs Brd2(1), Brd2(2), Brd3(1), Brd3(2); His6 (N); made in house; host or cells: E. coli BL21(DE3); settings: mutant
Brd2(2) Leu383-Ile = Brd2(2) Leu383-Ile (Homo sapiens, UniProt P25440, L383I); assay: DSF thermal shift; set-up: Plasmids of the eight single BET bromodomain constructs Brd2(1), Brd2(2), Brd3(1), Brd3(2); His6 (N); made in house; host or cells: E. coli BL21(DE3); settings: mutant
Sequence of Brd2(2) Leu383-Ile (P25440 344-453 L383I limits assumed): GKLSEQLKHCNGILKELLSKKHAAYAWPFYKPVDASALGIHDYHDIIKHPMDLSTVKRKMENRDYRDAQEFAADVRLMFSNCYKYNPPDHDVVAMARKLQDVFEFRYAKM

[1] = target: T1, Brd2 tandem with the mutation in the first bromodomain (LA-WT) (Homo sapiens, UniProt P25440, L110A); assay: ITC of compound into Brd2 tandem construct
T1 construct: containing the first and the second bromodomain, as well as the natural linker between them; His6; SUMO (cleaved yes); made in house; host or cells: E. coli BL21(DE3)
T1 sequence (P25440 71-455 L110A limits assumed): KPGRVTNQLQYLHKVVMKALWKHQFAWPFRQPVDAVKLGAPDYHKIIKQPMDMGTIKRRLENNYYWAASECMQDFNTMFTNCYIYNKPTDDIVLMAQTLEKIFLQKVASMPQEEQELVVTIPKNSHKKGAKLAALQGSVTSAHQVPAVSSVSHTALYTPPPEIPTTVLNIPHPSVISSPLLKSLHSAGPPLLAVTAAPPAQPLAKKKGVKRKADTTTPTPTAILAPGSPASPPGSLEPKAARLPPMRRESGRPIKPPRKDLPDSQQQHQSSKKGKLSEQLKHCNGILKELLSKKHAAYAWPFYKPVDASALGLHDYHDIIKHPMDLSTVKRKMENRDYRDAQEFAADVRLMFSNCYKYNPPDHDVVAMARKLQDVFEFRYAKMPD
Experimental: (§1) Tandem constructs of Brd2 with and without leucine to alanine mutations were expressed and purified for this last part of the project. […] Nevertheless, ITC experiments were performed with four of these constructs, a tandem with no mutation (WT-WT), a tandem with the mutation in the first bromodomain (LA-WT), a tandem with the mutation on the second bromodomain (WT-LA) and a tandem with mutations on both bromodomains (LA-LA). Normal titrations (compound into syringe, protein into sample cell) with compound 11 were performed for this assay. For the WT-WT construct, 300 μM of the compound was injected into a solution of the tandem at 10 μM. For the LA-WT and WT-LA constructs, the compound was injected at 150 μM into 15 μM of the protein and for the LA-LA construct, 150 μM compound was injected into a solution of 10 μM of this tandem construct. The ITC assays were run at 30° C. at 1% DMSO.
(§2) ITC experiments were carried out on a ITC200 instrument from MicroCal™ Experiments were conducted at 3 different temperatures 15° C., 25° C. and 30° C., while stirring at 1000 rpm. Buffers of proteins, peptide and compounds were matched to 20 mM HEPES pH 7.5 at 25° C. and 100 mM NaCl. Frozen protein was buffer exchanged as described for the DSF experiments. Each titration comprised 1 initial injection of 0.4 μl lasting 0.8 s, followed by 19 injections of 2 μl lasting 4 s each at 2 min intervals. The initial injection was discarded during data analysis. Standard and reverse titrations were conducted depending on the binding partners.
(§3) All the data was fitted to a single binding site model using the Microcal LLC ITC200 Origin software provided by the manufacturer to yield enthalpies of binding (ΔH) and binding constants (Kas). Further thermodynamic parameters were calculated from these values (changes in entropy ΔS, changes in free energy AG and dissociation constants (Kds)).

[2] = target: T2, Brd2 tandem with no mutation (WT-WT) (Homo sapiens, UniProt P25440); assay: ITC of compound into Brd2 tandem construct
T2 construct: containing the first and the second bromodomain, as well as the natural linker between them; His6; SUMO (cleaved yes); made in house; host or cells: E. coli BL21(DE3)
T2 sequence (P25440 71-455 limits assumed, change not shown): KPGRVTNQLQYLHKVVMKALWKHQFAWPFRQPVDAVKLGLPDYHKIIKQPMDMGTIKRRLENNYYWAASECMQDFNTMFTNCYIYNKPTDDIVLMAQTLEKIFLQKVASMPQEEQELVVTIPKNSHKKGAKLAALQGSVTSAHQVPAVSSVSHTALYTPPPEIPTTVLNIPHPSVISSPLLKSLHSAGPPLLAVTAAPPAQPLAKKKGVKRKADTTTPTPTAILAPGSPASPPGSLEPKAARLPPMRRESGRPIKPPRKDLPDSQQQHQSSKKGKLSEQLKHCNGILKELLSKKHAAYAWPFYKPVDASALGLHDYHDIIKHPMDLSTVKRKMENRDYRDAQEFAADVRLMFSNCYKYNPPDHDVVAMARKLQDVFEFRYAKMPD
Experimental: as §1, §2, §3

[3] = target: T3, Brd2 tandem with mutations on both bromodomains (LA-LA) (Homo sapiens, UniProt P25440, L110A/L383A); assay: ITC of compound into Brd2 tandem construct
T3 construct: containing the first and the second bromodomain, as well as the natural linker between them; His6; SUMO (cleaved yes); made in house; host or cells: E. coli BL21(DE3)
T3 sequence (P25440 71-455 L110A/L383A limits assumed): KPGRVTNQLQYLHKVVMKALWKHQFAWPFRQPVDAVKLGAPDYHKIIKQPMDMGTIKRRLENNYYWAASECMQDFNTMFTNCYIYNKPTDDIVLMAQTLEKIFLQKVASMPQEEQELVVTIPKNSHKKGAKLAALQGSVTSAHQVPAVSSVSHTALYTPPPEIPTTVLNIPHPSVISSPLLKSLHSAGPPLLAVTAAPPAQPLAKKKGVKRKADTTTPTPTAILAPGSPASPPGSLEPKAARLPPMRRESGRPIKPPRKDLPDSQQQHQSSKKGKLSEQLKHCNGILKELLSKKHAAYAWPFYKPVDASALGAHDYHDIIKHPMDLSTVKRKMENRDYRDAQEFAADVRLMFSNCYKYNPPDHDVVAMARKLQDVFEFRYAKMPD
Experimental: as §1, §2, §3

Sequence of Brd2(1) Leu110-Ile (P25440 74-180 L110I limits assumed): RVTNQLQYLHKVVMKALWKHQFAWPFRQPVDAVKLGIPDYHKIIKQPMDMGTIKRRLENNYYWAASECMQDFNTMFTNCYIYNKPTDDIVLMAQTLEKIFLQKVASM

Compound | Thermal stabilisation brd2(1)L110I (Brd2(1) Leu110-Ile) [°C] | ΔTm Brd2(1)*(Leu110-Ile) (Brd2(1) Leu110-Ile) [K] | Thermal stabilisation brd2(1)L110I (Brd2(1) Leu110-Ile; listed as compound 7) [°C] | Thermal stabilisation brd2(2)V383I (Table 1); Brd2(2) Leu383-Ile (text) (Brd2(2) Leu383-Ile) [°C] | ΔTm Brd2(2)*(Leu383-Ile) (Brd2(2) Leu383-Ile) [K] | Thermal stabilisation brd2(2)V383I (Table 1); Brd2(2) Leu383-Ile (text) (Brd2(2) Leu383-Ile; listed as compound 7) [°C] | Kd [1] [nM] | Kd [2] [nM] | Kd [3] [nM]
COC(=O)[C@H](C)[C@@H]1N=C(c2ccc(Cl)cc2)c2cc(OC)ccc2-n2c(C)nnc21 (racemic) [Compound 7, (+−)-methyl (R)-2-((S)-6-(4-chlorophenyl)-8-methoxy-1-methyl-4H-benzo[f][1,2,4]triazolo[4,3-a][1,4]diazepin-4-yl)propanoate] | 5.7 ± 0.7 | 5.7 ± 0.7 | 5.7 | 9.6 ± 0.1 | 9.6 ± 0.1 | 9.6 | – | – | –
CC[C@@H](C(=O)OC)[C@@H]1N=C(c2ccc(Cl)cc2)c2cc(OC)ccc2-n2c(C)nnc21 (racemic) [Compound 11, (+−)-methyl (R)-2-((S)-6-(4-chlorophenyl)-8-methoxy-1-methyl-4H-benzo[f][1,2,4]triazolo[4,3-a][1,4]diazepin-4-yl)butanoate] | – | – | – | – | – | – | ~160 | ~15800 | ~56
